Test results: patent publication US12655160B2, “KRAS G12D inhibitors” (Mirati Therapeutics, Inc., priority 2020, dated 2026)
Structures can show the parent of a compound that is named as a salt. Where two headings read alike, the source gives them in different places.

Columns and labels:
[1] = system: KRas G12D-mediated Phosphorylation of ERK; experiment: Inhibition of KRas G12D-mediated Phosphorylation of ERK in AGS cells; assay type: cell-based; settings: Homo sapiens
Method: AGS cells (ATCC CRL-1739) expressing G12D were grown in DMEM medium supplemented with 10% fetal bovine serum, 10 mM HEPES, and Penicillin/Streptomycin. Cells were plated in tissue culture treated 96 well plates at a density of 40,000 cells/well and allowed to attach for 12-14 hours. Diluted compounds were then added in a final concentration of 0.5% DMSO. After 3 hours, the medium was removed, 150 μl of 4.0% formaldehyde was added and the plates incubated at room temperature for 20 minutes. The plates were washed with PBS, and permeabilized with 150 μL of ice cold 100% methanol for 10 minutes. Non-specific antibody binding to the plates was blocked using 100 μL Licor blocking buffer (Li-Cor Biotechnology, Lincoln NE) for 1 hour at room temperature.
The amount of phospho-ERK was determined using an antibody specific for the phosphorylated form of ERK and compared to the amount of GAPDH. Primary antibodies used for the detection were added as follows: Phospho-ERK(Cell Signaling cs-9101) diluted 1:500 and GAPDH (Millipore MAB374) diluted 1:5000 in Licor block+0.05% Tween 20. The plates were incubated for 2 hours at room temperature. The plates were washed with PBS+0.05% Tween 20.
Secondary antibodies used to visualize primary antibodies were added as follows: Anti-rabbit-680 diluted 1:1000 and Anti-mouse-800 diluted 1:1000 both in Licor block+0.05% Tween20, and were incubated for 1 hour at room temperature. The plates were washed with PBS+0.05% Tween 20. A 100 μl aliquot of PBS was added to each well and the plates were read on a Li-Cor Odyssey CLX plate reader.
The phospho-ERK(Thr202/Tyr204 signal was normalized to the GAPDH signal for each well and percent of DMSO control values were calculated. IC50 values were generated using a 4-parameter fit of the dose response curve

KRas G12D [2] = target: T1, KRas G12D (Homo sapiens, UniProt P01116, G12D); experiment: KRas G12D Surface Plasmon Resonance (SPR) Binding Assay; design: Avidin-tag (so in the source); settings: Biacore T200, Biotinylated Avidin-tagged KRAS protein on SA chip, 20 C, 1:1 binding model
Method: This Example illustrates that exemplary compounds of the present invention bind to KRas G12D as measured by surface plasmon resonance (SPR). Briefly, 1 L of 1.05×HBS-Mg buffer (262.5 mM BioUltra Hepes, pH 7.5, 157.5 mM NaCl, 105 mM MgCl2, 0.525 mM TCEP, 0.0305% Brij-35) was prepared and filter sterilized using a 0.22 μm bottle top filter. Approximately 50 mL of 1.05×HBS-Mg buffer was removed and saved for future dilutions. A 50 mL aliquot of DMSO (Sigma Aldrich DMSO Lot. #SHBK2079) was added and continued to stir for 10 minutes, creating the final 1.0×HBS-Mg buffer (250 mM BioUltra Hepes pH 7.5, 150 mM NaCl, 100 mM MgCl2, 0.5 mM TCEP, 0.03% Brij-35). Biacore T200 instrument was primed using 1.0×HBS-Mg buffer before docking a GE Streptavidin (SA) chip and then primed two additional times prior to beginning the immobilization step. All immobilized protein mixtures were created using 3-5 mg/mL Biotinylated Avidin-tagged KRAS protein using the following immobilization settings: SA chip type, 1 flow cells per cycle, 720 second contact time, and 5 μL/min flow rate. Normalization of the detector was also performed during the immobilization step using the GE BiaNormalize solution. All compounds were diluted to 10 mM in 100% DMSO prior to being diluted 20× in 1.05× buffer. Another 10λ dilution was created using 1.0× buffer prior to performing a series of 3× dilutions to create a compound concentration curve using the following assay settings: 20 C analysis temperature, General Settings=10 Hz data collection rate and multi-detection; Assay Steps=all set to LMW kinetics; Cycle Types=LMW kinetics (60 s contact time, 120 s dissociation time, 100 μL/min flow rate, extra wash after injection with 50% DMSO, flow path 1,2,3,4); Flow path detection=2-1, 4-3). Data evaluation was performed using the Biacore T200 Evaluation software and data fit to 1:1 binding model.
Target sequence in this assay (P01116 1-188 isoform P01116-2 G12D): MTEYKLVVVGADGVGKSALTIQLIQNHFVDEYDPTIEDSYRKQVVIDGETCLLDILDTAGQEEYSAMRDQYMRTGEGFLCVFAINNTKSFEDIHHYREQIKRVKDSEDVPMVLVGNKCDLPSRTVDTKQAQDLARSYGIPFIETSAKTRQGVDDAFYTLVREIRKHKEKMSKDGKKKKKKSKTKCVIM

KRas G12D [3] = target: T1, KRas G12D; experiment: KRas G12D Binding Assay (TR-FRET displacement of labeled tracer); design: corresponding to amino acids 1:169, produced at Array BioPharma Inc; biotin (biotinylated); settings: TR-FRET displacement of Cy5 labelled tracer, Biotinylated GDP-loaded KRAS G12D (amino acids 1:169), 60 minute incubation at 22° C.
In short: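 Biotinylated GDP-loaded KRAS G12D (aa 1:169) was incubated with Cy5 tracer, Eu-streptavidin and compound (2% DMSO) in HEPES pH 7.5, MgCl2, Tween-20, DTT, 60 min at 22° C. TR-FRET ratio gave POC; IC50 from 4-parameter fit at 50 POC.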
Target sequence in this assay (P01116 1-169 isoform P01116-2 G12D): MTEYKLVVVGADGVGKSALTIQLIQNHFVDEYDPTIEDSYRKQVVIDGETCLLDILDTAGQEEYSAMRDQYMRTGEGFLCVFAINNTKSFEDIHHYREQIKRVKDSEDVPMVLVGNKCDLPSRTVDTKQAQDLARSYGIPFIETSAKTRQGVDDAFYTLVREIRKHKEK

[4] = AGS cells expressing G12D, 3 hours, phospho-ERK signal normalized to GAPDH, read-out: IC50

Kd (KRas G12D [2]) [nM]	IC50 (KRas G12D [3]) [nM]	SMILES	IC50 [1, 4] [nM]	IC50 ([1]; AGS, 3 h) [nM]
12.2	10	CN(C)C1(CNc2nc(OC[C@@]34CCCN3C[C@H](F)C4)nc3c(F)c(-c4cc(O)cc5ccccc45)ncc23)CCCC1 [Example 7, 4-(4-(((1-(dimethylamino)cyclopentyl)methyl)amino)-8-fluoro-2-(((2R,7aS)-2-fluorotetrahydro-1H-pyrrolizin-7a(5H)-yl)methoxy)pyrido[4,3-d]pyrimidin-7-yl)naphthalen-2-ol bis(2,2,2-trifluoroacetate)]	711	–
66.8	39.9	CC1(CNc2nc(OC[C@@]34CCCN3C[C@H](F)C4)nc3c(F)c(-c4cc(O)cc5ccccc45)ncc23)CNC1 [Example 8, 4-(8-fluoro-2-(((2R,7aS)-2-fluorotetrahydro-1H-pyrrolizin-7a(5H)-yl)methoxy)-4-(((3-methylazetidin-3-yl)methyl)amino)pyrido[4,3-d]pyrimidin-7-yl)naphthalen-2-ol]	> 16700	–
135	76.5	CN(CC1(N(C)C)CCC1)c1nc(OC[C@@]23CCCN2C[C@H](F)C3)nc2c(F)c(-c3cc(O)cc4cccc(Cl)c34)ncc12 [Example 36, 5-chloro-4-(4-(((1-(dimethylamino)cyclobutyl)methyl)(methyl)amino)-8-fluoro-2-(((2R,7aS)-2-fluorotetrahydro-1H-pyrrolizin-7a(5H)-yl)methoxy)pyrido[4,3-d]pyrimidin-7-yl)naphthalen-2-ol dihydrochloride]	3290	–

SMILES	Kd (KRas G12D [2]) [nM]	IC50 (KRas G12D [3]) [nM]	IC50 [1, 4] [nM]	IC50 ([1]; AGS, 3 h) [nM]
C#Cc1cccc2cc(O)cc(-c3ncc4c(NCC5(N(C)C)CCC5)nc(OC[C@@]56CCCN5C[C@H](F)C6)nc4c3F)c12 [Example 52, 4-(4-(((1-(dimethylamino)cyclobutyl)methyl)amino)-8-fluoro-2-(((2R,7aS)-2-fluorotetrahydro-1H-pyrrolizin-7a(5H)-yl)methoxy)pyrido[4,3-d]pyrimidin-7-yl)-5-ethynylnaphthalen-2-ol]	0.04	0.6	–	12
